Reference: the supplement of paper PMC10307832

How the values were obtained:
Assay in all cases: relative viability (nuclei count vs DMSO), 5 days (fraction); higher = more cells survive
[1] = tested on: HCC-44
Method in brief: (§1)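 Lung cancer cell lines in 1536-well plates were dosed by pin tool the day after seeding, either with one drug alone or with a fixed anchor-drug dose plus five library-drug doses (not always all listed) in √10 steps. After 5 days, cells were fixed and their nuclei stained in one step (final 0.05% Triton X-100, 1% formaldehyde, 1 ug/ml Hoechst), then counted on 4× images. Relative viability is the nuclei count in treated wells divided by that in vehicle wells. Values are medians of duplicate plates.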

[2] = tested on: NCI-H460
Method in brief: as §1

[3] = tested on: NCI-H441
Method in brief: as §1

[4] = tested on: NCI-H1651
Method in brief: as §1

[5] = tested on: CAL-12T
Method in brief: as §1

[6] = tested on: NCI-H2085
Method in brief: as §1

[7] = tested on: NCI-H358
Method in brief: as §1

[8] = tested on: NCI-H1975
Method in brief: as §1

[9] = tested on: BEN
Method in brief: as §1

[10] = tested on: NCI-H838
Method in brief: as §1

[11] = tested on: NCI-H1355
Method in brief: as §1

[12] = tested on: NCI-H1755
Method in brief: as §1

[13] = tested on: EKVX
Method in brief: as §1

[14] = tested on: HCC-15
Method in brief: as §1

[15] = tested on: HCC-366
Method in brief: as §1

[16] = tested on: LOU-NH91
Method in brief: as §1

[17] = tested on: LCLC-103H
Method in brief: as §1

[18] = tested on: NCI-H1395
Method in brief: as §1

[19] = tested on: NCI-H1437
Method in brief: as §1

[20] = tested on: NCI-H2023
Method in brief: as §1

[21] = tested on: NCI-H1734
Method in brief: as §1

[22] = tested on: NCI-H1563
Method in brief: as §1

For `Clc1ccc(Nc2nnc(Cc3ccncc3)c3ccccc23)cc1` [Vatalanib] + Cc1nc(NC(=O)N2CCC[C@H]2C(N)=O)sc1-c1ccnc(C(C)(C)C(F)(F)F)c1 [Alpelisib] (partner 2 µM), the relative viability ([1]; first compound 0.04 µM) was 0.803, the relative viability ([1]; first compound 0.1265 µM) was 0.815 and the relative viability ([1]; first compound 0.4 µM) was 0.777. The relative viability ([1]; first compound 1.265 µM) was 0.81, the relative viability ([1]; first compound 4 µM) was 0.745 and the relative viability ([2]; first compound 0.04 µM) was 0.512. It also gave a relative viability ([2]; first compound 0.1265 µM) of 0.392, a relative viability ([2]; first compound 0.4 µM) of 0.654 and a relative viability ([2]; first compound 1.265 µM) of 0.467. The relative viability ([2]; first compound 4 µM) was 0.441, the relative viability ([3]; first compound 0.04 µM) was 0.808 and the relative viability ([3]; first compound 0.1265 µM) was 0.627. The relative viability ([3]; first compound 0.4 µM) was 0.733, the relative viability ([3]; first compound 1.265 µM) was 0.836 and the relative viability ([3]; first compound 4 µM) was 0.859. The relative viability ([4]; first compound 0.04 µM) was 0.869, the relative viability ([4]; first compound 0.1265 µM) was 0.863 and the relative viability ([4]; first compound 0.4 µM) was 0.968. For the same compound, the relative viability ([4]; first compound 1.265 µM) was 0.894, the relative viability ([4]; first compound 4 µM) was 0.929 and the relative viability ([5]; first compound 0.04 µM) was 1.05. The relative viability ([5]; first compound 0.1265 µM) was 1.26, the relative viability ([5]; first compound 0.4 µM) was 1.44 and the relative viability ([5]; first compound 1.265 µM) was 0.987. It also gave a relative viability ([5]; first compound 4 µM) of 1.22, a relative viability ([6]; first compound 0.04 µM) of 0.923 and a relative viability ([6]; first compound 0.1265 µM) of 0.94. The relative viability ([6]; first compound 0.4 µM) was 1.04, the relative viability ([6]; first compound 1.265 µM) was 0.97 and the relative viability ([6]; first compound 4 µM) was 0.893. It also gave a relative viability ([7]; first compound 0.04 µM) of 0.88, a relative viability ([7]; first compound 0.1265 µM) of 0.741 and a relative viability ([7]; first compound 0.4 µM) of 1.09. The relative viability ([7]; first compound 1.265 µM) was 0.824, the relative viability ([7]; first compound 4 µM) was 0.876 and the relative viability ([8]; first compound 0.04 µM) was 0.618. The relative viability ([8]; first compound 0.1265 µM) was 0.62, the relative viability ([8]; first compound 0.4 µM) was 0.627 and the relative viability ([8]; first compound 1.265 µM) was 0.553. For the same compound, the relative viability ([8]; first compound 4 µM) was 0.519, the relative viability ([9]; first compound 0.04 µM) was 1.05 and the relative viability ([9]; first compound 0.1265 µM) was 0.945. For the same compound, the relative viability ([9]; first compound 0.4 µM) was 1.09, the relative viability ([9]; first compound 1.265 µM) was 1.18 and the relative viability ([9]; first compound 4 µM) was 1.04. For the same compound, the relative viability ([10]; first compound 0.04 µM) was 0.975, the relative viability ([10]; first compound 0.1265 µM) was 1.07 and the relative viability ([10]; first compound 0.4 µM) was 1.06. The relative viability ([10]; first compound 1.265 µM) was 0.864, the relative viability ([10]; first compound 4 µM) was 0.985 and the relative viability ([11]; first compound 0.04 µM) was 0.821. It also gave a relative viability ([11]; first compound 0.1265 µM) of 0.747, a relative viability ([11]; first compound 0.4 µM) of 0.87 and a relative viability ([11]; first compound 1.265 µM) of 0.691. It also gave a relative viability ([11]; first compound 4 µM) of 0.711, a relative viability ([12]; first compound 0.04 µM) of 0.946 and a relative viability ([12]; first compound 0.1265 µM) of 0.895. For the same compound, the relative viability ([12]; first compound 0.4 µM) was 0.977, the relative viability ([12]; first compound 1.265 µM) was 0.857 and the relative viability ([12]; first compound 4 µM) was 0.906. The relative viability ([13]; first compound 0.04 µM) was 0.939, the relative viability ([13]; first compound 0.1265 µM) was 0.821 and the relative viability ([13]; first compound 0.4 µM) was 0.824. For the same compound, the relative viability ([13]; first compound 1.265 µM) was 0.829, the relative viability ([13]; first compound 4 µM) was 0.785 and the relative viability ([14]; first compound 0.04 µM) was 0.893. It also gave a relative viability ([14]; first compound 0.1265 µM) of 0.884, a relative viability ([14]; first compound 0.4 µM) of 0.918 and a relative viability ([14]; first compound 1.265 µM) of 0.916. For the same compound, the relative viability ([14]; first compound 4 µM) was 0.937, the relative viability ([15]; first compound 0.04 µM) was 0.388 and the relative viability ([15]; first compound 0.1265 µM) was 0.346. For the same compound, the relative viability ([15]; first compound 0.4 µM) was 0.461, the relative viability ([15]; first compound 1.265 µM) was 0.33 and the relative viability ([15]; first compound 4 µM) was 0.396. It also gave a relative viability ([16]; first compound 0.04 µM) of 0.75, a relative viability ([16]; first compound 0.1265 µM) of 0.702 and a relative viability ([16]; first compound 0.4 µM) of 0.595. For the same compound, the relative viability ([16]; first compound 1.265 µM) was 0.704, the relative viability ([16]; first compound 4 µM) was 0.732 and the relative viability ([17]; first compound 0.04 µM) was 0.987. For the same compound, the relative viability ([17]; first compound 0.1265 µM) was 0.923, the relative viability ([17]; first compound 0.4 µM) was 1.02 and the relative viability ([17]; first compound 1.265 µM) was 0.954. For the same compound, the relative viability ([17]; first compound 4 µM) was 0.96, the relative viability ([18]; first compound 0.04 µM) was 1.08 and the relative viability ([18]; first compound 0.1265 µM) was 1.04. The relative viability ([18]; first compound 0.4 µM) was 1.19, the relative viability ([18]; first compound 1.265 µM) was 1.08 and the relative viability ([18]; first compound 4 µM) was 0.971. For the same compound, the relative viability ([19]; first compound 0.04 µM) was 0.975, the relative viability ([19]; first compound 0.1265 µM) was 1 and the relative viability ([19]; first compound 0.4 µM) was 0.997. The relative viability ([19]; first compound 1.265 µM) was 1.04, the relative viability ([19]; first compound 4 µM) was 0.991 and the relative viability ([20]; first compound 0.04 µM) was 0.611. It also gave a relative viability ([20]; first compound 0.1265 µM) of 0.537, a relative viability ([20]; first compound 0.4 µM) of 0.657 and a relative viability ([20]; first compound 1.265 µM) of 0.492. It also gave a relative viability ([20]; first compound 4 µM) of 0.561, a relative viability ([21]; first compound 0.04 µM) of 0.747 and a relative viability ([21]; first compound 0.1265 µM) of 0.684. For the same compound, the relative viability ([21]; first compound 0.4 µM) was 0.743, the relative viability ([21]; first compound 1.265 µM) was 0.685 and the relative viability ([21]; first compound 4 µM) was 0.689. It also gave a relative viability ([22]; first compound 0.04 µM) of 0.937, a relative viability ([22]; first compound 0.1265 µM) of 0.862 and a relative viability ([22]; first compound 0.4 µM) of 1.03. It also gave a relative viability ([22]; first compound 1.265 µM) of 0.863 and a relative viability ([22]; first compound 4 µM) of 0.979.
